The text below walks through data of patent US9302967B2, “Substituted cathechols as inhibitors of IL-4 and IL-5 for the treatment of bronchial asthma” (Council of Scientific & Industrial Research, priority 2011, dated 2016).

One may read the IC50 as the point on the concentration scale where inhibition reaches its midpoint. Broadly, the melting point is the temperature, or range, at which the solid turns liquid.

In one series the test system is IL-4. The series can be described thus: PHA-stimulated human PBMC, IL-4 in supernatant by Cytometric Bead Array. In kind it is cell-based. Conditions: PHA 10 μg/ml, read-out: IC50 inhibitory activity, stimulation-induced IL-4. The protocol: (§1) Normal human peripheral blood mononuclear cells (PBMC) were stimulated with phytohemagglutinin (PHA) 10 μg/ml in the presence and absence of varying concentrations of compounds of formula I and II. Culture supernatants were harvested and IIL-4 and IL-5 cytokines were quantitated by Cytometric Bead Array (CBA™) kit (Becton Dickinson, USA) following manufacturers instructions using a Flow Cytometer (BD LSR, Becton Dickinson) and CBA™ analysis software (Becton Dickinson).

Another series concerns IL-5. The series is described as follows: PHA-stimulated human PBMC, IL-5 in supernatant by Cytometric Bead Array. In kind it is cell-based. Conditions: Homo sapiens, PHA 10 μg/ml, read-out: IC50 inhibitory activity, stimulation-induced IL-5. The procedure:
as §1

As for `C=CCc1cccc(OC(C)=O)c1OC(C)=O` [Compound 19, 3-allyl-1,2-phenylene diacetate], the melting point was in the range of 58 to 60 °C. The IC50 in the series on IL-4 was determined as 30 µM. Moreover, the IC50 with IL-5 stood at 35 µM.
Turning to `C=CCc1ccc(OC(C)=O)c(OC(C)=O)c1` [Compound 7, 4-allyl-1,2-phenylene diacetate], the IC50 with IL-4 and in the series on IL-5 was 4 µM in each case.
In the case of `C=CCc1cccc(O)c1O` [Compound 16, 3-allyl-benzene-1,2-diol], the IC50 in the series on IL-4 and in the series with IL-5 was 30 µM throughout.
